Reference: PubChem BioAssay AID248 (DTP/NCI, 2004)
Several values for one entry are separate records, joined by “and”; a condition that tells them apart may be missing. Identical values can stand only once. Inconclusive results and toxic doses are left out. Cut-off read from the data, not from the text of the source: active = T/C of 150% or more; inactive = T/C below 125%.

System: L1210 leukemia ip in BDF1 mice, survival T/C
Test: NCI In Vivo Anticancer Drug Screen. Data for tumor model L1210 Leukemia (intraperitoneal) in B6D2F1 (BDF1) mice
Settings: endpoint: mean survival time, higher = longer survival
Outline: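 Tumor was transplanted into mice, which were then dosed with test compound or vehicle alone. Survival was recorded for each group, and the treated figure was expressed relative to the control figure.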

[1] = dose: 100.0 mg/kg/injection, schedule: Q01DX001 (ip), vehicle: saline
[2] = dose: 200.0 mg/kg/injection, schedule: Q01DX001 (ip), vehicle: saline
[3] = dose: 400.0 mg/kg/injection, schedule: Q01DX001 (ip), vehicle: saline
[4] = dose: 50.0 mg/kg/injection, schedule: Q01DX009 (ip), vehicle: saline with Tween-80
[5] = dose: 100.0 mg/kg/injection, schedule: Q01DX001 (ip), vehicle: carboxymethylcellulose (CMC)
[6] = dose: 400.0 mg/kg/injection, schedule: Q01DX001 (ip), vehicle: carboxymethylcellulose (CMC)
[7] = dose: 100.0 mg/kg/injection, schedule: Q04DX003 (ip), vehicle: Klucel (hydroxypropylcellulose) (HPC)
[8] = dose: 200.0 mg/kg/injection, schedule: Q04DX003 (ip), vehicle: Klucel (hydroxypropylcellulose) (HPC)
[9] = dose: 400.0 mg/kg/injection, schedule: Q04DX003 (ip), vehicle: Klucel (hydroxypropylcellulose) (HPC)
[10] = dose: 100.0 mg/kg/injection, schedule: Q04DX003 (ip), vehicle: saline with Tween-80
[11] = dose: 200.0 mg/kg/injection, schedule: Q04DX003 (ip), vehicle: saline with Tween-80
[12] = dose: 400.0 mg/kg/injection, schedule: Q04DX003 (ip), vehicle: saline with Tween-80
[13] = dose: 100.0 mg/kg/injection, schedule: Q01DX001 (ip), vehicle: Klucel (hydroxypropylcellulose) (HPC)
[14] = dose: 200.0 mg/kg/injection, schedule: Q01DX001 (ip), vehicle: Klucel (hydroxypropylcellulose) (HPC)
[15] = dose: 100.0 mg/kg/injection, schedule: Q01DX009 (ip), vehicle: Klucel (hydroxypropylcellulose) (HPC)
[16] = dose: 200.0 mg/kg/injection, schedule: Q01DX009 (ip), vehicle: Klucel (hydroxypropylcellulose) (HPC)
[17] = dose: 400.0 mg/kg/injection, schedule: Q01DX009 (ip), vehicle: Klucel (hydroxypropylcellulose) (HPC)

Measured: T/C

CC(=O)C(C)(c1ccccc1)N(Cc1ccccc1)C(=O)c1ccccc1 (stereo unspecified)
inactive: dose: 100.0 mg/kg/injection, schedule: Q04DX003 (ip), vehicle: other 93 % of control | dose: 200.0 mg/kg/injection, schedule: Q04DX003 (ip), vehicle: other 108 % of control | dose: 400.0 mg/kg/injection, schedule: Q04DX003 (ip), vehicle: other 92 % of control

CCOC(=O)c1c(OC(C)=O)cc(C)nc1OC(C)=O
inactive: [1] 100 % of control | [2] 100 % of control | [3] 111 % of control

COc1nc(C)c(C)[n+]([O-])n1
inactive: dose: 12.5 mg/kg/injection, schedule: Q01DX001 (ip), vehicle: saline with Tween-80 94 % of control | dose: 12.5 mg/kg/injection, schedule: Q01DX009 (ip), vehicle: saline with Tween-80 96 % of control | dose: 12.5 mg/kg/injection, schedule: Q04DX003 (ip), vehicle: saline with Tween-80 97 % of control | dose: 25.0 mg/kg/injection, schedule: Q01DX001 (ip), vehicle: saline with Tween-80 100 % of control | dose: 25.0 mg/kg/injection, schedule: Q01DX009 (ip), vehicle: saline with Tween-80 108 % of control | dose: 25.0 mg/kg/injection, schedule: Q04DX003 (ip), vehicle: saline with Tween-80 110 % of control | dose: 50.0 mg/kg/injection, schedule: Q01DX001 (ip), vehicle: saline with Tween-80 107 % of control | [4] 96 % of control | dose: 50.0 mg/kg/injection, schedule: Q04DX003 (ip), vehicle: saline with Tween-80 94 % of control

COc1cc2c(C)cc(=O)oc2cc1O
inactive: [5] 98 % of control | [6] 93 % of control

ON=C1c2ccccc2-c2ccccc21
inactive: dose: 100.0 mg/kg/injection, schedule: Q04DX002 (ip), vehicle: Klucel (hydroxypropylcellulose) (HPC) 96 % of control | dose: 200.0 mg/kg/injection, schedule: Q04DX002 (ip), vehicle: Klucel (hydroxypropylcellulose) (HPC) 93 % of control | dose: 400.0 mg/kg/injection, schedule: Q04DX002 (ip), vehicle: Klucel (hydroxypropylcellulose) (HPC) 104 % of control

O=C1CCCCC1C(O)(C(=O)c1ccccc1)c1ccccc1 (stereo unspecified) (tested in a mixture with another compound)
inactive: [4] 97 % of control | dose: 100.0 mg/kg/injection, schedule: Q01DX009 (ip), vehicle: saline with Tween-80 87 % of control | dose: 200.0 mg/kg/injection, schedule: Q01DX009 (ip), vehicle: saline with Tween-80 91 % of control

CN1C(=O)c2c(Cl)c(Cl)c(Cl)c(Cl)c2C1=O
inactive: dose: 222.0 mg/kg/injection, schedule: Q01DX Z (ip), vehicle: methylcellulose (MC) 105 % of control | dose: 333.0 mg/kg/injection, schedule: Q01DX Z (ip), vehicle: methylcellulose (MC) 105 % of control | dose: 500.0 mg/kg/injection, schedule: Q01DX Z (ip), vehicle: methylcellulose (MC) 98 % of control

O=[N+]([O-])c1ccc2c(c1)=N/C(=N\c1nc(O)c(O)[nH]1)N=2
inactive: [7] 101 % of control | [8] 98 % of control | [9] 104 % of control

COC(=O)/C=C(\C)Oc1c(Cl)c(Cl)c(Cl)c(Cl)c1Cl
inactive: dose: 100.0 mg/kg/injection, schedule: Q01DX009 (ip), vehicle: saline sonified 96 % of control | dose: 200.0 mg/kg/injection, schedule: Q01DX009 (ip), vehicle: saline sonified 100 % of control | dose: 400.0 mg/kg/injection, schedule: Q01DX009 (ip), vehicle: saline sonified 100 % of control

CCCCCCCCN(c1ccc(C(=O)O)cc1)S(=O)(=O)c1ccc(C)cc1
inactive: dose: 75.0 mg/kg/injection, schedule: Q01DX009 (ip), vehicle: Klucel (hydroxypropylcellulose) (HPC) 103 % of control | dose: 150.0 mg/kg/injection, schedule: Q01DX009 (ip), vehicle: Klucel (hydroxypropylcellulose) (HPC) 100 % of control | dose: 300.0 mg/kg/injection, schedule: Q01DX009 (ip), vehicle: Klucel (hydroxypropylcellulose) (HPC) 90 % of control

CC(=O)CC(=O)NCc1ccncc1
inactive: dose: 100.0 mg/kg/injection, schedule: Q01DX009 (ip), vehicle: saline 97 % of control | dose: 100.0 mg/kg/injection, schedule: Q04DX003 (ip), vehicle: saline 100 % of control | dose: 200.0 mg/kg/injection, schedule: Q01DX009 (ip), vehicle: saline 105 % of control | dose: 200.0 mg/kg/injection, schedule: Q04DX003 (ip), vehicle: saline 102 % of control | dose: 400.0 mg/kg/injection, schedule: Q01DX009 (ip), vehicle: saline 95 % of control | dose: 400.0 mg/kg/injection, schedule: Q04DX003 (ip), vehicle: saline 97 % of control

Nc1ccc(S(=O)(=O)S(=O)(=O)c2ccc(N)cc2)cc1
inactive: [10] 93 % of control | [11] 86 % of control | [12] 91 % of control

CC(c1ccc2ccccc2c1)C1CCCCC1C(=O)O (stereo unspecified)
inactive: [10] 96 % of control | [11] 97 % of control | [12] 94 % of control

O=C(OCc1ccccc1CN1CCCC1)c1cccc(Br)c1
inactive: [13] 95 % of control | [14] 98 % of control

CC(CO)[CH2][Sn]([c]1ccccc1)([c]1ccccc1)[c]1ccccc1 (stereo unspecified)
inactive: dose: 100.0 mg/kg/injection, schedule: Q04DX002 (ip), vehicle: saline with Tween-80 98 % of control and 101 % of control | dose: 200.0 mg/kg/injection, schedule: Q04DX002 (ip), vehicle: saline with Tween-80 98 % of control | dose: 400.0 mg/kg/injection, schedule: Q04DX002 (ip), vehicle: saline with Tween-80 95 % of control and 98 % of control

NC1CCCc2ccccc2C1O (stereo unspecified)
inactive: [1] 102 % of control | [2] 104 % of control

COc1cc(Cc2cnc(N)nc2N)cc(OC)c1OC
inactive: dose: 50.0 mg/kg/injection, schedule: Q01DX001 (ip), vehicle: saline 101 % of control | [1] 92 % of control | [2] 100 % of control | [3] 97 % of control

COc1cc2c(cc1OCc1ccccc1)C(c1cc(OC)c(OC)c(OC)c1)=C1C(=O)OCC1C2 (stereo unspecified)
inactive: [1] 98 % of control | [2] 97 % of control | [3] 97 % of control

CCOC(=O)COc1ccc(C=O)cc1
inactive: [15] 110 % of control | [7] 102 % of control | [16] 96 % of control | [8] 96 % of control | [17] 98 % of control | [9] 97 % of control

Cl[SiH](Cl)c1ccccc1
inactive: [1] 96 % of control | [2] 96 % of control | [3] 90 % of control

O=C(OC1CC2CC1C1C=CCC21)c1ccc([N+](=O)[O-])cc1 (stereo unspecified)
inactive: dose: 44.0 mg/kg/injection, schedule: Q01DX001 (ip), vehicle: carboxymethylcellulose (CMC) 94 % of control and 97 % of control | dose: 50.0 mg/kg/injection, schedule: Q01DX001 (ip), vehicle: carboxymethylcellulose (CMC) 102 % of control | dose: 67.0 mg/kg/injection, schedule: Q01DX001 (ip), vehicle: carboxymethylcellulose (CMC) 94 % of control and 100 % of control | [13] 104 % of control | [5] 94 % of control and 100 % of control | [15] 101 % of control | dose: 150.0 mg/kg/injection, schedule: Q01DX001 (ip), vehicle: carboxymethylcellulose (CMC) 86 % of control and 91 % of control | [14] 93 % of control | dose: 200.0 mg/kg/injection, schedule: Q01DX001 (ip), vehicle: carboxymethylcellulose (CMC) 90 % of control | [16] 104 % of control | dose: 400.0 mg/kg/injection, schedule: Q01DX001 (ip), vehicle: Klucel (hydroxypropylcellulose) (HPC) 104 % of control | [6] 96 % of control | [17] 101 % of control

COc1cc2c(cc1OC)-c1c(=O)c3cc(OC)c(OC)cc3n([O-])[n+]1CC2
inactive: [1] 93 % of control | [2] 94 % of control | [3] 89 % of control
